Laboratory results published in patent US3951979A, “New amino propanediol derivatives” (priority 1972, dated 1976).
Like-named read-outs stand apart in the source and are kept apart here.

Legend:
[1] = Acute toxicity, LD50, oral administration; conditions: in vivo, mouse
Experimental: 1. Acute toxicity -- LD50 -- Oral administration
This was determined upon the mouse by oral administration, the LD50 value being calculated by the method of B. Behrens & C. Karber (Arch F. Exp. Patho. Pharm., volume 177, page 379 (1935) )

[2] = system: mebubarbital-induced sleep; experiment: Potentiation of an inactive dose of a barbiturate (mebubarbital); format: in vivo; conditions: for ED50: 0.25 h, read-out: Barbiturates (potentiation), ED50
rat = experiment: Cataleptic effect, homolateral crossed paws method; format: in vivo; design: Catalepsy: unit not given here; conditions: for Catalepsy, result at stated dose / Catalepsy: I.P.; for Cataleptic effect (in words): in vivo
cerebral dopamine = experiment: Biochemical dopamine effect on the brain (spectrofluorometric); format: in vivo, mouse (strain OF1); conditions: mouse; for Cerebral dopamine / Cerebral dopamine (result in words): I.P.; for Cerebral dopamine (result in words): dose not given
Experimental: 7. Biochemical dopamine effect on the brain This effect is measured by spectrofluorometric means using the Jobin-Yvon Bearn apparatus, on the brains of mice of the strain OF1.

apomorphine = experiment: Anti-apomorphic effect in the rat; format: in vivo; design: Anti-apomorphine: unit not given here; conditions: for Activity in apomorphine stereotypes (in words): in vivo; for Anti-apomorphine: apomorphine 0.6 mg/kg
central nervous system = experiment: Effect on the central nervous system, overall psycholeptic/neuroleptic spectrum; conditions: in vivo
From the text: EFFECT ON THE CENTRAL NERVOUS SYSTEM
This effect was observed by means of a set of tests of which the most significant are summarised below: […]

[3] = system: apomorphine-induced vomiting; experiment: Anti-emetic effect: apomorphine-induced attempted vomits in beagle dogs; format: in vivo; conditions: dog
Experimental: The anti-emetic effect, which may constitute a contributory factor to the main effect, was also systematically tested in accordance with the following procedure:
Dogs of the beagle breed were split up at random into groups of 3 animals. After fasting for 24 hours, the animals were given an empty capsule then, one hour later, received a sub-cutaneous injection of apomorphine hydrochloride (0.3 mg/kg). The number of attempted vomits during 45 minutes was then counted.
After 15 days rest, the same animals were given a capsule identical to that given on the first occasion but containing the product to be tested. The injection of apomorphine was carried out under the same conditions as for the control experiment.

coughing spasms = experiment: Antitussive effect: inhibition of coughing spasms induced by stimulating a laryngeal nerve; format: in vivo, cat; conditions: for Activity of the product (antitussive) / Duration of activity (antitussive): cat; for Dose of pentoxyverine necessary for comparable antitussive effect, relative to compound: versus pentoxyverine
From the text: Finally, the compounds of the invention having shown themselves to be powerful antitussive agents, the results of comparative tests for this activity on four compounds of the invention and on pentoxyverine, one of the most powerful antitussive agents at present known, are given below in Table V.
The technique used was the method of R. Domenjoz, Arch. Exp. Pathol. V. Pharmacol. Volume 215, page 19 (1952)
The cat is anaesthetized with ether and tracheotomised.
Coughing spasms are induced by stimulating a laryngeal nerve. After the product to be tested has been administered, fresh stimulation enables the inhibition achieved and its duration to be assessed.

[4] = system: carotid arterial blood-pressure; experiment: Effect on carotid arterial blood-pressure of the dog anaesthetised with chloralose; format: in vivo; conditions: for Hypotensive effect (in words): in vivo
Experimental: EFFECT ON ARTERIAL BLOOD-PRESSURE This was measured on the dog anaesthetised with chloralose by recording both the extent of, and the duration of, the effect on carotid arterial blood-pressure.

[5] = oral administration, sleep in 50% of animals 15 minutes after product
[6] = Canis lupus familiaris, 1.25 mg/kg intravenous

C#CC(C)(CC)OCC(O)CN1CCN(c2ccccc2OC)CC1 (stereo not shown) [compound 18]
LD50 [1]: > 200 mg/kg | ED50 [2, 5]: > 25 mg/kg | Catalepsy, result at stated dose (rat; at 40): Inactive | Cataleptic effect (in words) (rat): non-inducive of catalepsy | Cerebral dopamine (cerebral dopamine; at 20 mg/kg): -24% | Activity in apomorphine stereotypes (in words) (apomorphine): active in apomorphine stereotypes | Anti-apomorphine (apomorphine; subcutaneous): 10 | Sedative effect (in words) (central nervous system): non-sedative

CCN(CC)CCNC(=O)c1cc(Cl)c(N)cc1OC [Metoclopramide, metoclopramide, reference compound]
Reduction in attempted vomits ([3]; 1 mg/kg subcutaneous): 100% | Reduction in attempted vomits ([3]; 1.5 mg/kg oral): 100%

CCN(CC)CCOCCOC(=O)C1(c2ccccc2)CCCC1 [Pentoxyverine, pentoxyverine, reference compound]
Activity of the product (antitussive) (coughing spasms; 10 mg/kg body weight): 45% | Duration of activity (antitussive) (coughing spasms; 10 mg/kg body weight): 30 min | Activity of the product (antitussive) (coughing spasms; 50 mg/kg body weight): 71% | Duration of activity (antitussive) (coughing spasms; 50 mg/kg body weight): 110 min

C#CC1(OCC(O)CN2CCN(c3ccccc3)CC2)CCCCC1 (stereo not shown) [Compound No. 2]
LD50 [1]: > 600 mg/kg | ED50 [2, 5]: 100 mg/kg | Catalepsy (rat): 50 | Cerebral dopamine (cerebral dopamine; at 40 mg/kg): -33% | Anti-apomorphine (apomorphine; subcutaneous): 50

C#CC(C)(CC)OCC(O)CN1CCN(CC(OCC)c2ccccc2)CC1 (stereo not shown) [Compound No. 25, 1-3-(1-methyl-1-ethynyl)propoxy-2-hydroxy propyl-4-(2-ethoxy-2-phenyl)ethylpiperazine]
Activity of the product (antitussive) (coughing spasms; 5 mg/kg body weight): 41% | Duration of activity (antitussive) (coughing spasms; 5 mg/kg body weight): > 35 min | Activity of the product (antitussive) (coughing spasms; 7.5 mg/kg body weight): 49% | Duration of activity (antitussive) (coughing spasms; 7.5 mg/kg body weight): 62 min | Activity of the product (antitussive) (coughing spasms; 10 mg/kg body weight): 71% | Duration of activity (antitussive) (coughing spasms; 10 mg/kg body weight): 80 min | Dose of pentoxyverine necessary for comparable antitussive effect, relative to compound (coughing spasms): five times greater

C#CC(C)(CC)OCC(O)CN1CCN(c2ccccc2)CC1 (stereo not shown) [Compound No. 3]
LD50 [1]: > 600 mg/kg | ED50 [2, 5]: > 100 mg/kg | Catalepsy, result at stated dose (rat; at 40): Inactive | Cerebral dopamine (cerebral dopamine; at 60 mg/kg): -45% | Duration of activity (blood-pressure) ([4]; 1.25 mg/kg intravenous): 35 min | change in vivo at 1.25 mg/kg [4, 6]: -21.5% | Hypotensive effect (in words) [4]: markedly hypotensive | Neuroleptic/psycholeptic activity (in words) (central nervous system): only slightly neuroleptic

C#CC(C)(C)OCC(O)CN1CCN(c2ccccc2)CC1 (stereo not shown) [Compound No. 1]
Duration of activity (blood-pressure) ([4]; 1.25 mg/kg intravenous): ≥ 35 min | change in vivo at 1.25 mg/kg [4, 6]: -20.3%

C#CC(C)(CC)OCC(O)CN1CCN(c2ccc(F)cc2)CC1 (stereo not shown) [compound 9]
LD50 [1]: > 600 mg/kg | ED50 [2, 5]: > 100 mg/kg | Catalepsy (rat): 60 | Cerebral dopamine (cerebral dopamine; at 60 mg/kg): -50% | Duration of activity (blood-pressure) ([4]; 1.25 mg/kg intravenous): 20 min | change in vivo at 1.25 mg/kg [4, 6]: -27%

C#CC1(OCC(O)CN2CCN(c3cccc(C(F)(F)F)c3)CC2)CCCCC1 (stereo not shown) [Compound No. 11]
LD50 [1]: 783 mg/kg | ED50 [2, 5]: 90 mg/kg | Catalepsy, result at stated dose (rat; at 40): Inactive | Cataleptic effect (in words) (rat): slightly cataleptic | Cerebral dopamine (result in words) (cerebral dopamine): Inactive | Anti-apomorphine (apomorphine; O.A.): 15 | Activity in apomorphine stereotypes (in words) (apomorphine): extremely active in apomorphine stereotypes | Duration of activity (blood-pressure) ([4]; 1.25 mg/kg intravenous): 30 min | change in vivo at 1.25 mg/kg [4, 6]: -15% | Hypotensive effect (in words) [4]: slightly hypotensive | Reduction in attempted vomits ([3]; 10 mg/kg oral): 75% | Sedative effect (in words) (central nervous system): fairly sedative

C#CC1(OCC(O)CN2CCN(c3ccccc3OC)CC2)CCCCC1 (stereo not shown) [Compound No. 20, 1-3-(1-ethynyl)cyclohexyloxy-2-hydroxy-propyl-4-(2-methoxy)phenylpiperazine]
LD50 [1]: 60 mg/kg | Barbiturates (potentiation), ED50 [2, 5]: Inactive | Catalepsy, result at stated dose (rat; at 20): Inactive | Cataleptic effect (in words) (rat): non-inducive of catalepsy | Cerebral dopamine (result in words) (cerebral dopamine): Inactive | Anti-apomorphine (apomorphine; I.P.): 5 | Activity in apomorphine stereotypes (in words) (apomorphine): active in apomorphine stereotypes | Duration of activity (blood-pressure) ([4]; 1.25 mg/kg intravenous): ≥ 70 min | change in vivo at 1.25 mg/kg [4, 6]: -35.6% | Hypotensive effect (in words) [4]: especially hypotensive | Reduction in attempted vomits ([3]; 1 mg/kg oral): 100% | Reduction in attempted vomits ([3]; 1 mg/kg subcutaneous): 100% | Inhibition of the emetic effect of apomorphine compared with metoclopramide ([3]; oral administration): superior to that of metoclopramide | Inhibition of the emetic effect of apomorphine compared with metoclopramide ([3]; subcutaneous injection): equal to that of metoclopramide | Sedative effect (in words) (central nervous system): non-sedative

C#CC(C)(C)OCC(O)CN1CCN(c2ccc(F)cc2)CC1 (stereo not shown) [compound 5]
Duration of activity (blood-pressure) ([4]; 1.25 mg/kg intravenous): ≥ 35 min | change in vivo at 1.25 mg/kg [4, 6]: -19.5%

C#CC1(OCC(O)CN2CCN(CC(OCC)c3ccccc3)CC2)CCCCC1 (stereo not shown) [compound 22]
Activity of the product (antitussive) (coughing spasms; 10 mg/kg body weight): 75% | Duration of activity (antitussive) (coughing spasms; 10 mg/kg body weight): 50 min | Dose of pentoxyverine necessary for comparable antitussive effect, relative to compound (coughing spasms): five times greater

O=C(CCCN1CCC(O)(c2ccc(Cl)cc2)CC1)c1ccc(F)cc1 [Haloperidol, haloperidol, reference compound]
LD50 [1]: 125 mg/kg | ED50 ([2]; po): 12 mg/kg | Catalepsy (rat): 1 | Cerebral dopamine (cerebral dopamine; at 10 mg/kg): -30% | Anti-apomorphine (apomorphine; subcutaneous): 0.5

C#CC1(OCC(O)CN2CCN(CC(OC)c3ccccc3)CC2)CCCCC1 (stereo not shown) [compound 21]
Activity of the product (antitussive) (coughing spasms; 10 mg/kg body weight): 54% | Duration of activity (antitussive) (coughing spasms; 10 mg/kg body weight): 20 min

C#CC1(OCC(O)CN2CCN(c3ccc(F)cc3)CC2)CCCCC1 (stereo not shown) [Compound No. 4, 1-3-(1-ethynyl)cyclohexyloxy-2-hydroxy propyl-4-(4-fluorophenyl)piperazine]
LD50 [1]: 800 mg/kg | ED50 [2, 5]: 20 mg/kg | Catalepsy (rat): 20 | Cerebral dopamine (cerebral dopamine; at 10 mg/kg): -50% | Depletion of cerebral mono-amines (in words) (cerebral dopamine; in vivo): depletion of cerebral mono-amines in a manner reminiscent of reserpine | Anti-apomorphine (apomorphine; O.A.): 92 | Duration of activity (blood-pressure) ([4]; 5 mg/kg intravenous): 20 min | change in vivo at 5 mg/kg ([4]; Canis lupus familiaris, 5 mg/kg intravenous): -50% | Reduction in attempted vomits ([3]; 1 mg/kg subcutaneous): 74% | Neuroleptic/psycholeptic activity (in words) (central nervous system): fairly full spectrum characteristic of neuroleptic activity

C#CC(C)(C)OCC(O)CN1CCN(CC(OC)c2ccccc2)CC1 (stereo not shown) [compound 23]
Activity of the product (antitussive) (coughing spasms; 10 mg/kg body weight): 31% | Duration of activity (antitussive) (coughing spasms; 10 mg/kg body weight): 25 min

C#CC1(OCC(O)CN2CCN(c3ccc(Cl)cc3)CC2)CCCCC1 (stereo not shown) [compound 8]
LD50 [1]: > 600 mg/kg | ED50 [2, 5]: 50 mg/kg | Catalepsy (rat): 30 | Cerebral dopamine (cerebral dopamine; at 80 mg/kg): -78% | Reduction in attempted vomits ([3]; 5 mg/kg oral): 76%

C[C@](N)(Cc1ccc(O)c(O)c1)C(=O)O [αmethyldopa, reference compound]
Duration of activity (blood-pressure) ([4]; 1.25 mg/kg intravenous): 95 min | change in vivo at 1.25 mg/kg [4, 6]: -8.7%
